Laboratory results published in patent US9409882B2, “Pyridine derivatives” (Hoffmann-La Roche Inc., priority 2012, dated 2016).

How the values were obtained:
human Cathepsin S = human Cathepsin S (Homo sapiens (Human), UniProt P25774); assay: Cathepsin enzyme inhibition assay (fluorogenic peptide substrate), human Cat S; assay type: biochemical; details: human Cat S 1 nM, substrate Z-Val-Val-Arg-AMC 20 μM, pH 6.5
Method: (§1) Cathepsin Enzyme Inhibition Assay
(§2) Enzyme activity is measured by observing the increase in fluorescence intensity caused by cleavage of a peptide substrate containing a fluorophore whose emission is quenched in the intact peptide.
(§3) Assay buffer: 100 mM potassium phosphate pH 6.5, EDTA-Na 5 mM, Triton X-100 0.001%, DTT 5 mM.
(§4) Enzymes (all at 1 nM): human and mouse Cathepsin S, Cat K, Cat B, Cat L.
(§5) Substrate (20 μM): Z-Val-Val-Arg-AMC, except for Cat K which uses Z-Leu-Arg-AMC (both from Bachem).
(§6) AMC=7-Amino-4-Methyl-Coumarin.
(§7) Excitation 360 nm, Emission 465 nm.
(§8) Enzyme is added to the substance dilutions in 96-well microtitre plates and the reaction is started with substrate. […] IC50 are calculated by standard methods.
(§9) Inhibition of human Cat S, mouse Cat S, human Cat K, human Cat B, human Cat L and mouse Cat L have been measured separately.

human Cat L = human Cat L (Homo sapiens (Human), UniProt P07711); assay: Cathepsin enzyme inhibition assay (fluorogenic peptide substrate), human Cat L; assay type: biochemical; details: human Cat L 1 nM, substrate Z-Val-Val-Arg-AMC 20 μM, pH 6.5
Method: as §1, §2, §3, §4, §5, §6, §7, §8, §9

human Cat L, sequence (P07711 114-333): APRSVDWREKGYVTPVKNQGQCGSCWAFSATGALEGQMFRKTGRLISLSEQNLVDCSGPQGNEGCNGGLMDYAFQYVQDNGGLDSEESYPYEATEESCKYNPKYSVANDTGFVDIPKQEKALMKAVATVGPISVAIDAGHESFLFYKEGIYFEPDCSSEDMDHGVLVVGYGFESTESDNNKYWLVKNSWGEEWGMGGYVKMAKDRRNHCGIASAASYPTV
human Cathepsin S, sequence (P25774 115-331): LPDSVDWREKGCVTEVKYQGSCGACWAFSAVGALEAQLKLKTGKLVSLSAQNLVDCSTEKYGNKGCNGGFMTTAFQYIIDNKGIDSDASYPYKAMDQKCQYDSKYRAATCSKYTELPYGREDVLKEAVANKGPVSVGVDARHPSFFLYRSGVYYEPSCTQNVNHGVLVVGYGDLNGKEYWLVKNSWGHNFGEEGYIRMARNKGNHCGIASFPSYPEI

An IC50 (human Cathepsin S) of 3 nM and an IC50 (human Cat L) of 1970 nM were found for `N#CC1(NC(=O)[C@@H]2C[C@@H](S(=O)(=O)c3ccc(Cl)cn3)CN2C(=O)C2(c3ncc(Cl)cc3F)CC2)CC1` [Example 22, (2S,4R)-1-[1-(5-Chloro-3-fluoro-pyridin-2-yl)-cyclopropanecarbonyl]-4-(5-chloropyridine-2-sulfonyl)-pyrrolidine-2-carboxylic acid (1-cyano-cyclopropyl)-amide] in this work.
An IC50 (human Cathepsin S) of 2.8 nM and an IC50 (human Cat L) of 5640 nM were found for `Cc1cccc(S(=O)(=O)[C@@H]2C[C@@H](C(=O)NC3(C#N)CC3)N(C(=O)C3(c4ncc(Cl)cc4F)CC3)C2)n1` [Example 23, (2S,4R)-1-[1-(5-Chloro-3-fluoro-pyridin-2-yl)-cyclopropanecarbonyl]-4-(6-methylpyridine-2-sulfonyl)-pyrrolidine-2-carboxylic acid (1-cyano-cyclopropyl)-amide] in this work.
An IC50 (human Cathepsin S) of 6.24 nM and an IC50 (human Cat L) of 2690 nM were found for `N#CC1(NC(=O)[C@@H]2C[C@@H](S(=O)(=O)c3ccc(C(F)(F)F)cn3)CN2C(=O)C2(c3ncc(Cl)cc3F)CC2)CC1` [Example 24, (2S,4R)-1-[1-(5-Chloro-3-fluoro-pyridin-2-yl)-cyclopropanecarbonyl]-4-(5-trifluoromethyl-pyridine-2-sulfonyl)-pyrrolidine-2-carboxylic acid (1-cyano-cyclopropyl)-amide] in this work.
An IC50 (human Cathepsin S) of 3.21 nM and an IC50 (human Cat L) of 13200 nM were found for `N#CC1(NC(=O)[C@@H]2C[C@@H](S(=O)(=O)c3ncccc3C(F)(F)F)CN2C(=O)C2(c3ncc(Cl)cc3F)CC2)CC1` [Example 25, (2S,4R)-1-[1-(5-Chloro-3-fluoro-pyridin-2-yl)-cyclopropanecarbonyl]-4-(3-trifluoromethyl-pyridine-2-sulfonyl)-pyrrolidine-2-carboxylic acid (1-cyano-cyclopropyl)-amide] in this work.
An IC50 (human Cathepsin S) of 1.6 nM and an IC50 (human Cat L) of 90 nM were found for `C[C@H](Oc1ccc(S(=O)(=O)[C@@H]2C[C@@H](C(=O)NC3(C#N)CC3)N(C(=O)C3(c4ncc(Cl)cc4F)CC3)C2)c(Cl)c1)C(F)(F)F` [Example 27, (2S,4R)-1-(1-(5-chloro-3-fluoropyridin-2-yl)cyclopropanecarbonyl)-4-(2-chloro-4-((S)-1,1,1-trifluoropropan-2-yloxy)phenylsulfonyl)-N-(1-cyanocyclopropyl)pyrrolidine-2-carboxamide] in this work.
An IC50 (human Cathepsin S) of 0.618 nM and an IC50 (human Cat L) of 362 nM were found for `N#CC1(NC(=O)[C@@H]2C[C@@H](S(=O)(=O)c3cc(C(F)(F)F)ccc3Cl)CN2C(=O)C2(c3ccc(Cl)cn3)CC2)CC1` [Example 29, (2S,4R)-1-[1-(5-Chloro-pyridin-2-yl)-cyclopropanecarbonyl]-4-(2-chloro-5-trifluoromethyl-benzenesulfonyl)-pyrrolidine-2-carboxylic acid (1-cyano-cyclopropyl)-amide] in this work.
An IC50 (human Cathepsin S) of 0.505 nM and an IC50 (human Cat L) of 61.6 nM were found for `Cc1cc(-c2ccc(S(=O)(=O)[C@@H]3C[C@@H](C(=O)NC4(C#N)CC4)N(C(=O)C4(c5ncc(Cl)cc5F)CC4)C3)c(Cl)c2)ccn1` [Example 31, (2S,4R)-1-(1-(5-chloro-3-fluoropyridin-2-yl)cyclopropanecarbonyl)-4-(2-chloro-4-(2-methylpyridin-4-yl)phenylsulfonyl)-N-(1-cyanocyclopropyl)pyrrolidine-2-carboxamide] in this work.
An IC50 (human Cathepsin S) of 0.686 nM and an IC50 (human Cat L) of 112 nM were found for `N#CC1(NC(=O)[C@@H]2C[C@@H](S(=O)(=O)c3ccc(-c4ccnc(Cl)c4)cc3Cl)CN2C(=O)C2(c3ncc(Cl)cc3F)CC2)CC1` [Example 32, (2S,4R)-4-[2-Chloro-4-(2-chloro-pyridin-4-yl)-benzenesulfonyl]-1-[1-(5-chloro-3-fluoro-pyridin-2-yl)-cyclopropanecarbonyl]-pyrrolidine-2-carboxylic acid (1-cyano-cyclopropyl)-amide] in this work.
An IC50 (human Cathepsin S) of 0.375 nM and an IC50 (human Cat L) of 28.7 nM were found for `Cn1cc(-c2ccc(S(=O)(=O)[C@@H]3C[C@@H](C(=O)NC4(C#N)CC4)N(C(=O)C4(c5ncc(Cl)cc5F)CC4)C3)c(Cl)c2)cn1` [Example 33, (2S,4R)-1-[1-(5-Chloro-3-fluoro-pyridin-2-yl)-cyclopropanecarbonyl]-4-[2-chloro-4-(1-methyl-1H-pyrazol-4-yl)-benzenesulfonyl]-pyrrolidine-2-carboxylic acid (1-cyano-cyclopropyl)-amide] in this work.
An IC50 (human Cathepsin S) of 0.322 nM and an IC50 (human Cat L) of 64.2 nM were found for `Cc1ncccc1-c1ccc(S(=O)(=O)[C@@H]2C[C@@H](C(=O)NC3(C#N)CC3)N(C(=O)C3(c4ncc(Cl)cc4F)CC3)C2)c(Cl)c1` [Example 34, (2S,4R)-1-[1-(5-Chloro-3-fluoro-pyridin-2-yl)-cyclopropanecarbonyl]-4-[2-chloro-4-(2-methyl-pyridin-3-yl)-benzenesulfonyl]-pyrrolidine-2-carboxylic acid (1-cyano-cyclopropyl)-amide] in this work.
An IC50 (human Cathepsin S) of 0.768 nM and an IC50 (human Cat L) of 58.9 nM were found for `Cc1ncccc1-c1ccc(S(=O)(=O)[C@@H]2C[C@@H](C(=O)NC3(C#N)CC3)N(C(=O)C3(c4ncc(C(F)(F)F)cc4F)CC3)C2)c(Cl)c1` [Example 35, (2S,4R)-4-[2-Chloro-4-(2-methyl-pyridin-3-yl)-benzenesulfonyl]-1-[1-(3-fluoro-5-trifluoromethyl-pyridin-2-yl)-cyclopropanecarbonyl]-pyrrolidine-2-carboxylic acid (1-cyano-cyclopropyl)-amide] in this work.
An IC50 (human Cathepsin S) of 0.382 nM and an IC50 (human Cat L) of 9.8 nM were found for `Cc1ncccc1-c1ccc(S(=O)(=O)[C@@H]2C[C@@H](C(=O)NC3(C#N)CC3)N(C(=O)C3(c4ncc(I)cc4F)CC3)C2)c(Cl)c1` [Example 36, (2S,4R)-4-[2-Chloro-4-(2-methyl-pyridin-3-yl)-benzenesulfonyl]-1-[1-(3-fluoro-5-iodo-pyridin-2-yl)-cyclopropanecarbonyl]-pyrrolidine-2-carboxylic acid (1-cyano-cyclopropyl)-amide] in this work.
An IC50 (human Cathepsin S) of 0.779 nM and an IC50 (human Cat L) of 72.2 nM were found for `Cc1ncccc1-c1ccc(S(=O)(=O)[C@@H]2C[C@@H](C(=O)NC3(C#N)CC3)N(C(=O)C3(c4ncc(Cl)cc4Cl)CC3)C2)c(Cl)c1` [Example 37, (2S,4R)-4-[2-Chloro-4-(2-methyl-pyridin-3-yl)-benzenesulfonyl]-1-[1-(3,5-dichloro-pyridin-2-yl)-cyclopropanecarbonyl]-pyrrolidine-2-carboxylic acid (1-cyano-cyclopropyl)-amide] in this work.
An IC50 (human Cathepsin S) of 0.678 nM and an IC50 (human Cat L) of 3.2 nM were found for `Cn1cc(-c2ccc(S(=O)(=O)[C@@H]3C[C@@H](C(=O)NC4(C#N)CC4)N(C(=O)C4(c5ncc(I)cc5F)CC4)C3)c(Cl)c2)cn1` [Example 38, (2S,4R)-4-[2-Chloro-4-(1-methyl-1H-pyrazol-4-yl)-benzenesulfonyl]-1-[1-(3-fluoro-5-iodo-pyridin-2-yl)-cyclopropanecarbonyl]-pyrrolidine-2-carboxylic acid (1-cyano-cyclopropyl)-amide] in this work.
An IC50 (human Cathepsin S) of 0.696 nM and an IC50 (human Cat L) of 43.6 nM were found for `Cn1cc(-c2ccc(S(=O)(=O)[C@@H]3C[C@@H](C(=O)NC4(C#N)CC4)N(C(=O)C4(c5ncc(C(F)(F)F)cc5F)CC4)C3)c(Cl)c2)cn1` [Example 39, (2S,4R)-4-[2-Chloro-4-(1-methyl-1H-pyrazol-4-yl)-benzenesulfonyl]-1-[1-(3-fluoro-5-trifluoromethyl-pyridin-2-yl)-cyclopropanecarbonyl]-pyrrolidine-2-carboxylic acid (1-cyano-cyclopropyl)-amide] in this work.
An IC50 (human Cathepsin S) of 0.6 nM and an IC50 (human Cat L) of 3 nM were found for `N#CC1(NC(=O)[C@@H]2C[C@@H](S(=O)(=O)c3ccccc3F)CN2C(=O)C2(c3ncc(I)cc3F)CC2)CC1` [Example 41, (2S,4R)-4-(2-Fluoro-benzenesulfonyl)-1-[1-(3-fluoro-5-iodo-pyridin-2-yl)-cyclopropanecarbonyl]-pyrrolidine-2-carboxylic acid (1-cyano-cyclopropyl)-amide] in this work.
An IC50 (human Cathepsin S) of 0.7 nM and an IC50 (human Cat L) of 31 nM were found for `N#CC1(NC(=O)[C@@H]2C[C@@H](S(=O)(=O)c3ccccc3F)CN2C(=O)C2(c3ncc(Cl)cc3F)CC2)CC1` [Example 42, (2S,4R)-1-[1-(5-Chloro-3-fluoro-pyridin-2-yl)-cyclopropanecarbonyl]-4-(2-fluoro-benzenesulfonyl)-pyrrolidine-2-carboxylic acid (1-cyano-cyclopropyl)-amide] in this work.
An IC50 (human Cathepsin S) of 17 nM and an IC50 (human Cat L) of 90.6 nM were found for `N#CC1(NC(=O)[C@@H]2C[C@@H](S(=O)(=O)c3ccccc3-n3cccn3)CN2C(=O)C2(c3ncc(I)cc3F)CC2)CC1` [Example 43, (2S,4R)-1-[1-(3-Fluoro-5-iodo-pyridin-2-yl)-cyclopropanecarbonyl]-4-(2-pyrazol-1-yl-benzenesulfonyl)-pyrrolidine-2-carboxylic acid (1-cyano-cyclopropyl)-amide] in this work.
An IC50 (human Cathepsin S) of 2.37 nM and an IC50 (human Cat L) of 1560 nM were found for `N#CC1(NC(=O)[C@@H]2C[C@@H](S(=O)(=O)c3ccccc3-n3ccnn3)CN2C(=O)C2(c3ncc(I)cc3F)CC2)CC1` [Example 44, (2S,4R)-1-[1-(3-Fluoro-5-iodo-pyridin-2-yl)-cyclopropanecarbonyl]-4-(2-[1,2,3]triazol-1-yl-benzenesulfonyl)-pyrrolidine-2-carboxylic acid (1-cyano-cyclopropyl)-amide] in this work.
An IC50 (human Cathepsin S) of 327 nM and an IC50 (human Cat L) of 28400 nM were found for `N#CC1(NC(=O)[C@@H]2C[C@@H](S(=O)(=O)c3ccccc3-n3cncn3)CN2C(=O)C2(c3ncc(I)cc3F)CC2)CC1` [Example 45, (2S,4R)-1-[1-(3-Fluoro-5-iodo-pyridin-2-yl)-cyclopropanecarbonyl]-4-(2-[1,2,4]triazol-1-yl-benzenesulfonyl)-pyrrolidine-2-carboxylic acid (1-cyano-cyclopropyl)-amide] in this work.
